Measurements from US10226452B2, “Benzoxazolone derivatives as acid ceramidase inhibitors, and their use as medicaments” (FONDAZIONE ISTITUTO ITALIANO DI TECNOLOGIA, priority 2014, dated 2019).

Experiments:
[1] = molecular target: AC (Homo sapiens (Human), UniProt Q13510); assay: AC activity in A375 human melanoma cells; assay type: cell-based; settings: 25 μM, evident at 30 minutes, lasted up to 3 hours
Method: Specifically, FIG. 1 evidences the effects of compound of Example 7 or vehicle (0.1% DMSO in DMEM) on AC activity and ceramide levels in A375 (left panel) or MeWo (right panel) human melanoma cell lines. (A-B) Intact cells were treated with compound of Example 7 (25 μM) or vehicle and AC activity was measured 30 minutes or 3 hours later in cell lysates. (B) Intact cells were exposed to compound of Example 7 (25 μM) for 2 hours or 24 hours and medium chain ceramides (C-D), long chain ceramides (E-F) and dihydroceramides (G-H) were quantified. Results are expressed as mean±s.e.m. (n=3). *p<0.05, **p<0.01, ***p<0.001 vs vehicle, two-way ANOVA followed by Dunnet.
hAC protein preparation (10 μg) was preincubated with inhibitors (final DMSO concentration 1%) in assay buffer (100 mM sodium phosphate, 0.1% Nonidet P-40, 150 mM NaCl, 3 mM DTT, 100 mM sodium citrate, pH 4.5) for 30 min at 37° C. Reactions were started by the addition of 50 μM N-lauroyl ceramide (Nu-Chek Prep, Elysian, Minn.) and carried on for 30 min at 37° C. […] The organic phases were collected, dried under nitrogen and analyzed by UPLC/MS (Acquity, Waters). […]
The [M−H]^− ion was monitored in the selected-ion monitoring mode (m/z values: lauric acid 199, 11-lauroleic acid 197.35). […] Inhibition of AC activity was calculated as reduction of lauric acid in the samples compared to vehicle controls. […]

[2] = system: Raw264.7 cells; assay: sphingosine and ceramide levels in RAW264.7 cells; assay type: cell-based, mouse; settings: 0.1-20 μM, 3 hours
Method: Specifically it is reported the concentration response of compound of Example 25 or vehicle (0.1% DMSO in DMEM) on AC activity and ceramide levels in RAW264.7 murine cell line. (A) Intact cells were treated with compound of Example 25 (0.1-20 μM) or vehicle and AC activity was measured 3 hours later in cell lysates. (B-E) Intact cells were exposed to compound of Example 25 (0.1-20 μM) for 3 hours and sphingosine/sphinganine (B), dihydroceramides (C), medium chain ceramides (D), long chain ceramides (E) were quantified. Results are expressed as mean±s.e.m. (n=3). *p<0.05, **p<0.01, ***p<0.001 vs vehicle, two-way ANOVA followed by Dunnet.
Lipids were extracted from mouse tissue lysate with a chloroform/MeOH mixture (2:1 v/v, 3 mL) containing internal standards. The organic phase was collected, dried under nitrogen, and dissolved in chloroform/MeOH (1:3 v/v) for LC-MS analyses. Ceramides, sphingosine and sphinganine were analyzed by LC-MS/MS, using a Waters Acquity UPLC coupled with a Waters Xevo TQMS and interfaced with ESI. […]
Tissue-derived sphingosine and sphinganine were identified by comparison of their LC retention times and MS^2 fragmentation patterns with those of authentic standards (Avanti Polar Lipids). Extracted ion chromatograms were used to quantify sphingosine ([…], m/z 300.5>282.5) and sphinganine standard (C18:0, m/z 303>285). […]

Chain of AC (Q13510 22-142): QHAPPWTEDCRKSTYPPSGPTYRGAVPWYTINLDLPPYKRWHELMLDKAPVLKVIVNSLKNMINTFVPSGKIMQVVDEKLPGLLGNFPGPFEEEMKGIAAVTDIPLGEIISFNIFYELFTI
Chain of AC (Q13510 143-395): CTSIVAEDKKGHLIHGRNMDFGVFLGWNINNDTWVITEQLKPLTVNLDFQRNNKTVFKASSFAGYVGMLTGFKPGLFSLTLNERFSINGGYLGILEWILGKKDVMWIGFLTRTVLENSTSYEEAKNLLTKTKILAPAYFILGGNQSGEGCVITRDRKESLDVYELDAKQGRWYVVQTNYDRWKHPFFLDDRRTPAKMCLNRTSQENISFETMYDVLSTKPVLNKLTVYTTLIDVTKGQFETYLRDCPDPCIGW

## O=C(NCCCCc1ccccc1)n1c(=O)oc2cc(Br)ccc21 [Example 7, 6-Bromo-2-oxo-N-(4-phenylbutyl)-1,3-benzoxazole-3-carboxamide]
[1]
  AC activity: reduction in AC activity

## O=C(NCCCCc1ccccc1)n1c(=O)oc2cc(-c3ccc(F)cc3)ccc21 [Example 25, 6-(4-Fluorophenyl)-2-oxo-N-(4-phenylbutyl)-1,3-benzoxazole-3-carboxamide]
[2]
  di-hydro ceramides and ceramide species levels: intracellular accumulation of various di-hydro ceramides and ceramide species
  sphingosine levels: parallel decrease in sphingosine levels
